Reference: patent US4038384A, “Antibiotic A-28086 and process for production thereof” (Eli Lilly and Company, priority 1975, dated 1977)

Experiments:
rumen flora = assay: In vitro rumen fluid test, volatile fatty acid production; assay type: cell-based, steer; settings: 1 ppm in rumen fluid, 16 hours, 38° C.
Description: As discussed hereinabove, efficiency of carbohydrate utilization in ruminants is increased by treatments which stimulate the animal's rumen flora to produce propionate compounds rather than acetate or butyrate compounds. The efficiency of feed use can be monitored by observing the production and concentration of propionate compounds in the rumen, using the following methods:
Rumen fluid is obtained from a steer with a surgically-installed fistula opening into the rumen. The steer is maintained on a high-grain ration. A sample of rumen fluid is strained through four layers of cheesecloth, and the filtrate is collected. The particulate matter retained by the cheesecloth is resuspended in enough physiological buffer to return it to the original volume of the rumen fluid, and this suspension is strained again. The buffer used has the following composition:
The two filtrates are combined and allowed to stand until particulate matter separates to the top. The clear layer is separated, diluted with the same buffer (1:1) and then adjusted to between pH 6.8 to 7.0.
The diluted rumen fluid (10 ml) is placed in a 25-ml flask with 40 mg of the above-described feed, an additional 1 mg of soybean protein, and the compound to be tested. Four replicate flasks are used per treatment. Two sets of four control flasks each are also employed. A zero-time control and an incubated 16-hour control are used. All test flasks are incubated for 16 hours at 38° C. […] The samples are allowed to settle, and the supernatants are analyzed by gas chromatography for propionate, acetate, and butyrate compounds.

[1] = Electrometric titration in 80% aqueous dimethylformamide (pKa)
[2] = system: Staphylococcus aureus (H-Heatley) NRRL B-314; assay: Turbidometric assay (Autoturb), relative gram-positive activity; assay type: cell-based; settings: relative to A-28086 factor A standard = 1; nutrient broth pH 7, 4 hours, 37° C.
Description: The C2 -C6 -acyl ester derivatives of A-28086 factor A also have antibacterial and antifungal activity. In one aspect, these derivatives have increased gram-positive activity. The relative gram-positive activities of certain of these derivatives were compared with the activity of factor A. The compounds were tested by turbidometric assay on a semiautomated system (Autoturb microbiological assay system, Elanco) described by N. R. Kuzel and F. W. Kavanaugh in J. Pharmaceut. Sci. 60 (5), 764 and 767 (1971). In testing the A-28086 antibiotics, the following test parameters were used: Staphylococcus aureus (H-Heatley) NRRL B-314 in a nutrient broth medium (pH 7), incubated for 4 hours at 37° C. Test samples and the standard were dissolved in methanol-water (10:90). The standard, A-28086 factor A, was presented to the Autoturb carrousel at concentrations of 2, 3, 4, and 5 mcg/ml. Test compounds were diluted to contain approximately 3 or 4 mcg of activity per ml, as presented to the carrousel. The relative activities of test compounds, as compared to that of the standard, are given below: […]

[3] = In vivo feed-utilization efficiency in sheep; settings: 56 days
Eimeria tenella = assay: Anticoccidial activity in chicks against Eimeria tenella; assay type: in vivo, Eimeria tenella; chickens; settings: for Percent Weight Gain: normal controls 100
[4] = Solubility in water and organic solvents; assay type: physicochemical; settings: nonpolar organic solvents such as hexane
[5] = system: E. tenella, E. necatrix, E. maxima, E. brunetti, E. acervulina, and E. mivati; assay: Anticoccidial activity in chicks against mixed Eimeria species; assay type: in vivo; settings: 0.01% in feed
Description: (§1) ^1 Four replicates, 5 broiler cockerels each.

[6] = system: E. necatrix and E. tenella; assay: as above; assay type: in vivo, E. necatrix and E. tenella; broiler cockerels; settings: 0.005% in feed
Description: as §1

ruminal propionic acid = assay: In vivo ruminal propionic acid concentration in fistulated steers; settings: 100 mg/day, mean of five analyses in 14 days
Description: The test reported in Table XII was conducted with mature fistulated steers weighing about 1,000 lbs. each. Two steers were fed a normal diet, and four steers in each treatment group were fed an identical diet to which A-28086 factor A had been added. To each aliquot (100 ml) of rumen fluid taken, 10 percent metaphosphoric acid (100 ml) was added. The samples were allowed to settle, and the supernatants were analyzed by gas chromatographic methods to determine propionic acid concentrations.
The results in Table XII are the mean percent increases in ruminal propionic acid concentration, averaged over five analyses in a 14-day treatment period. Controls had approximately 20 molar percent propionic acid.

[7] = General microbiological (antibacterial/antifungal) activity; assay type: cell-based; settings: in words

## CCC(C(=O)O)C1OC(C(C)C(O)C(C)C(=O)C(CC)C2OC3(C=CC(OC(C)=O)C4(CCC(C)(C5CCC(O)(CC)C(C)O5)O4)O3)C(C)CC2C)C(C)CC1C (stereo not shown) [A-28086 factor A acetyl ester derivative, A-28086 factor A acetyl ester]
Rumen flora
  Ratio of Treated to Control, Molar % acetate: 0.79
  Ratio of Treated to Control, Molar % butyrate: 0.76
[1]
  pKa value of titratable group: 8.5
[2]
  Relative G^+ Activity: 2.5

## CCCC(=O)OC1C=CC2(OC(C(CC)C(=O)C(C)C(O)C(C)C3OC(C(CC)C(=O)O)C(C)CC3C)C(C)CC2C)OC12CCC(C)(C1CCC(O)(CC)C(C)O1)O2 (stereo not shown) [A-28086 factor A n-butyryl ester derivative]
Rumen flora
  Ratio of Treated to Control, Molar % acetate: 0.91
  Ratio of Treated to Control, Molar % butyrate: 0.81
[2]
  Relative G^+ Activity: 8

## CCCCCC(=O)OC1C=CC2(OC(C(CC)C(=O)C(C)C(O)C(C)C3OC(C(CC)C(=O)O)C(C)CC3C)C(C)CC2C)OC12CCC(C)(C1CCC(O)(CC)C(C)O1)O2 (stereo not shown) [A-28086 factor A n-caproyl ester derivative]
Rumen flora
  Ratio of Treated to Control, Molar % acetate: 0.86
  Ratio of Treated to Control, Molar % butyrate: 0.97
  Ratio of Treated to Control, Total VFA mM/l: 0.99
[2]
  Relative G^+ Activity: 20

## CCCCC(=O)OC1C=CC2(OC(C(CC)C(=O)C(C)C(O)C(C)C3OC(C(CC)C(=O)O)C(C)CC3C)C(C)CC2C)OC12CCC(C)(C1CCC(O)(CC)C(C)O1)O2 (stereo not shown) [A-28086 factor A n-valeryl ester derivative]
Rumen flora
  Ratio of Treated to Control, Molar % acetate: 0.92
  Ratio of Treated to Control, Molar % butyrate: 0.79
[2]
  Relative G^+ Activity: 14

## CCC(=O)OC1C=CC2(OC(C(CC)C(=O)C(C)C(O)C(C)C3OC(C(CC)C(=O)O)C(C)CC3C)C(C)CC2C)OC12CCC(C)(C1CCC(O)(CC)C(C)O1)O2 (stereo not shown) [A-28086 factor A propionyl ester derivative]
Rumen flora
  Ratio of Treated to Control, Molar % acetate: 0.90
  Ratio of Treated to Control, Molar % butyrate: 0.68
[2]
  Relative G^+ Activity: 7

## CCC(C(=O)O)C1OC(C(C)C(O)C(C)C(=O)C(CC)C2OC3(C=CC(O)C4(CCC(C)(C5CCC(O)(CC)C(C)O5)O4)O3)C(C)CC2C)C(C)CC1C (stereo not shown) [A-28086 factor A]
Rumen flora
  Ratio of Treated to Control, Molar % acetate: 0.94
  Ratio of Treated to Control, Molar % butyrate: 0.87
[1]
  pKa value of titratable group: 7.9
[3]; 9 g per ton of feed
  Feed/Grain: 7.40
[3]; 18 g per ton of feed
  Feed/Grain: 8.31
Eimeria tenella; 0.0025% in feed, second group
  Percent Reduction in Lesion Score: 0%
  Percent Weight Gain: 87%
Eimeria tenella; 0.0025% in feed, second group (20 chickens)
  Percent Mortality: 10%
Eimeria tenella; 0.005% in feed, second group
  Average Lesion Score: 2.8
  Percent Reduction in Lesion Score: 27%
  Percent Weight Gain: 91%
Eimeria tenella; 0.005% in feed, second group (20 chickens)
  Percent Mortality: 0%
Eimeria tenella; 0.01% in feed, first group
  Average Lesion Score: 0.2
  Percent Reduction in Lesion Score: 95%
  Percent Weight Gain: 94%
Eimeria tenella; 0.01% in feed, first group (10 chickens)
  Percent Mortality: 0%
Eimeria tenella; 0.01% in feed, second group
  Average Lesion Score: 0
  Percent Reduction in Lesion Score: 100%
  Percent Weight Gain: 96%
Eimeria tenella; 0.01% in feed, second group (20 chickens)
  Percent Mortality: 0%
Eimeria tenella; 0.02% in feed, first group
  Average Lesion Score: 0.2
  Percent Reduction in Lesion Score: 95%
  Percent Weight Gain: 82%
Eimeria tenella; 0.02% in feed, first group (10 chickens)
  Percent Mortality: 0%
Eimeria tenella; 0.02% in feed, second group
  Average Lesion Score: 0
  Percent Reduction in Lesion Score: 100%
  Percent Weight Gain: 84%
Eimeria tenella; 0.02% in feed, second group (20 chickens)
  Percent Mortality: 0%
Eimeria tenella; 0.04% in feed, first group
  Average Lesion Score: 0
  Percent Reduction in Lesion Score: 100%
  Percent Weight Gain: 50%
Eimeria tenella; 0.04% in feed, first group (10 chickens)
  Percent Mortality: 0%
[4]
  solubility in nonpolar organic solvents: only slightly soluble
[5]
  Cecal Lesions Percent Reducton: 73%
[6]
  Cecal Lesions Percent Reducton: 50%
Ruminal propionic acid
  Percent Increase Over Control in ruminal propionic acid concentration: 54.0%
[2]
  Relative G^+ Activity: 1

## CCC(C(=O)OC)C1OC(C(C)C(O)C(C)C(=O)C(CC)C2OC3(C=CC(O)C4(CCC(C)(C5CCC(O)(CC)C(C)O5)O4)O3)C(C)CC2C)C(C)CC1C (stereo not shown) [A-28086-I]
[7]
  microbiological activity: not microbiologically active
